Measured values taken from ChEMBL document CHEMBL4808193, “[11]-Chaetoglobosins from Pseudeurotium bakeri Induce G2/M Cell Cycle Arrest and Apoptosis in Human Cancer Cells” (J Nat Prod, 2021).
Active and inactive are the calls of the source. The calls are words filed in the database; no cut-off is given here.

Experiments:
[1] = system: A549; experiment: Cytotoxicity against human A549 cells assessed as reduction in cell viability by MTT assay; format: functional, cell-based
[2] = system: A-427; experiment: Cytotoxicity against human A-427 cells assessed as reduction in cell viability by MTT assay; format: functional, cell-based
[3] = system: HCT-116; experiment: Cytotoxicity against human HCT-116 cells assessed as reduction in cell viability by MTT assay; format: functional, cell-based
[4] = system: HT-29; experiment: Cytotoxicity against human HT-29 cells assessed as reduction in cell viability by MTT assay; format: functional, cell-based
[5] = system: MCF7; experiment: Cytotoxicity against human MCF7 cells assessed as reduction in cell viability by MTT assay; format: functional, cell-based
[6] = system: HeLa; experiment: Cytotoxicity against human HeLa cells assessed as reduction in cell viability by MTT assay; format: functional, cell-based
[7] = system: HepG2; experiment: Cytotoxicity against human HepG2 cells assessed as reduction in cell viability by MTT assay; format: functional, cell-based
[8] = system: L02; experiment: Cytotoxicity against human L02 cells assessed as reduction in cell viability by MTT assay; format: cell-based
[9] = system: MCF7; experiment: Cell cycle arrest in human MCF7 cells assessed as accumulation at S phase at 5 uM measured after 24 hrs by PI staining based flow cytometry (reference value: 24.64%); format: functional
[10] = system: MCF7; experiment: Cell cycle arrest in human MCF7 cells assessed as accumulation at G0/G1 phase at 5 uM measured after 24 hrs by PI staining based flow cytometry (reference value: 60.23%); format: functional
[11] = system: MCF7; experiment: Induction of apoptosis in human MCF7 cells assessed as increase in Bax protein level at 5 to 10 uM incubated for 24 hrs by Western blot analysis; format: functional, cell-based; conditions: dose 5-10 µM
[12] = system: MCF7; experiment: Induction of apoptosis in human MCF7 cells assessed as increase in cytochrome c level at 5 to 10 uM incubated for 24 hrs by Western blot analysis; format: functional, cell-based; conditions: dose 5-10 µM
[13] = system: MCF7; experiment: Induction of apoptosis in human MCF7 cells assessed as increase in cleaved caspase 3 level at 5 to 10 uM incubated for 24 hrs by Western blot analysis; format: functional, cell-based; conditions: dose 5-10 µM
[14] = system: MCF7; experiment: Induction of apoptosis in human MCF7 cells assessed as increase in PARP level at 5 to 10 uM incubated for 24 hrs by Western blot analysis; format: functional, cell-based; conditions: dose 5-10 µM
[15] = system: MCF7; experiment: Induction of apoptosis in human MCF7 cells assessed as increase in cleaved PARP level at 5 to 10 uM incubated for 24 hrs by Western blot analysis; format: functional, cell-based; conditions: dose 5-10 µM
[16] = system: A-427; experiment: Induction of apoptosis in human A-427 cells assessed as late apoptotic cells at 5 uM measured after 24 hrs by Annexin V-FITC/propidium iodide staining based flow cytometric analysis (reference value: 3.18%); format: functional
[17] = system: A-427; experiment: Induction of apoptosis in human A-427 cells assessed as late apoptotic cells at 3.75 uM measured after 24 hrs by Annexin V-FITC/propidium iodide staining based flow cytometric analysis (reference value: 3.18%); format: functional
[18] = system: A-427; experiment: Induction of apoptosis in human A-427 cells assessed as late apoptotic cells at 2.5 uM measured after 24 hrs by Annexin V-FITC/propidium iodide staining based flow cytometric analysis (reference value: 3.18%); format: functional
[19] = system: A-427; experiment: Induction of apoptosis in human A-427 cells assessed as early apoptotic cells at 5 uM measured after 24 hrs by Annexin V-FITC/propidium iodide staining based flow cytometric analysis (reference value: 4.98%); format: functional
[20] = system: A-427; experiment: Induction of apoptosis in human A-427 cells assessed as early apoptotic cells at 3.75 uM measured after 24 hrs by Annexin V-FITC/propidium iodide staining based flow cytometric analysis (reference value: 4.98%); format: functional
[21] = system: A-427; experiment: Induction of apoptosis in human A-427 cells assessed as early apoptotic cells at 2.5 uM measured after 24 hrs by Annexin V-FITC/propidium iodide staining based flow cytometric analysis (reference value: 4.98%); format: functional
[22] = system: MCF7; experiment: Induction of apoptosis in human MCF7 cells assessed as late apoptotic cells at 10 uM measured after 24 hrs by Annexin V-FITC/propidium iodide staining based flow cytometric analysis (reference value: 1.11%); format: functional
[23] = system: MCF7; experiment: Induction of apoptosis in human MCF7 cells assessed as late apoptotic cells at 7.5 uM measured after 24 hrs by Annexin V-FITC/propidium iodide staining based flow cytometric analysis (reference value: 1.11%); format: functional
[24] = system: MCF7; experiment: Induction of apoptosis in human MCF7 cells assessed as late apoptotic cells at 5 uM measured after 24 hrs by Annexin V-FITC/propidium iodide staining based flow cytometric analysis (reference value: 1.11%); format: functional
[25] = system: MCF7; experiment: Induction of apoptosis in human MCF7 cells assessed as early apoptotic cells at 10 uM measured after 24 hrs by Annexin V-FITC/propidium iodide staining based flow cytometric analysis (reference value: 4.82%); format: functional
[26] = system: MCF7; experiment: Induction of apoptosis in human MCF7 cells assessed as early apoptotic cells at 7.5 uM measured after 24 hrs by Annexin V-FITC/propidium iodide staining based flow cytometric analysis (reference value: 4.82%); format: functional
[27] = system: MCF7; experiment: Induction of apoptosis in human MCF7 cells assessed as early apoptotic cells at 5 uM measured after 24 hrs by Annexin V-FITC/propidium iodide staining based flow cytometric analysis (reference value: 4.82%); format: functional
[28] = system: A-427; experiment: Cell cycle arrest in human A-427 cells assessed as accumulation at G2/M phase at 5 uM measured after 24 hrs by PI staining based flow cytometry (reference value: 19.81%); format: functional
[29] = system: A-427; experiment: Cell cycle arrest in human A-427 cells assessed as accumulation at S phase at 5 uM measured after 24 hrs by PI staining based flow cytometry (reference value: 27.27%); format: functional
[30] = system: A-427; experiment: Cell cycle arrest in human A-427 cells assessed as accumulation at G0/G1 phase at 5 uM measured after 24 hrs by PI staining based flow cytometry (reference value: 52.93%); format: functional
[31] = system: A-427; experiment: Cell cycle arrest in human A-427 cells assessed as accumulation at G2/M phase at 3.75 uM measured after 24 hrs by PI staining based flow cytometry (reference value: 19.81%); format: functional
[32] = system: A-427; experiment: Cell cycle arrest in human A-427 cells assessed as accumulation at S phase at 3.75 uM measured after 24 hrs by PI staining based flow cytometry (reference value: 27.27%); format: functional
[33] = system: A-427; experiment: Cell cycle arrest in human A-427 cells assessed as accumulation at G0/G1 phase at 3.75 uM measured after 24 hrs by PI staining based flow cytometry (reference value: 52.93%); format: functional
[34] = system: A-427; experiment: Cell cycle arrest in human A-427 cells assessed as accumulation at G2/M phase at 2.5 uM measured after 24 hrs by PI staining based flow cytometry (reference value: 19.81%); format: functional
[35] = system: A-427; experiment: Cell cycle arrest in human A-427 cells assessed as accumulation at S phase at 2.5 uM measured after 24 hrs by PI staining based flow cytometry (reference value: 27.27%); format: functional
[36] = system: A-427; experiment: Cell cycle arrest in human A-427 cells assessed as accumulation at G0/G1 phase at 2.5 uM measured after 24 hrs by PI staining based flow cytometry (reference value: 52.93%); format: functional
[37] = system: MCF7; experiment: Cell cycle arrest in human MCF7 cells assessed as accumulation at G2/M phase at 10 uM measured after 24 hrs by PI staining based flow cytometry (reference value: 15.13%); format: functional
[38] = system: MCF7; experiment: Cell cycle arrest in human MCF7 cells assessed as accumulation at S phase at 10 uM measured after 24 hrs by PI staining based flow cytometry (reference value: 24.64%); format: functional
[39] = system: MCF7; experiment: Cell cycle arrest in human MCF7 cells assessed as accumulation at G0/G1 phase at 10 uM measured after 24 hrs by PI staining based flow cytometry (reference value: 60.23%); format: functional
[40] = system: MCF7; experiment: Cell cycle arrest in human MCF7 cells assessed as accumulation at G2/M phase at 7.5 uM measured after 24 hrs by PI staining based flow cytometry (reference value: 15.13%); format: functional
[41] = system: MCF7; experiment: Cell cycle arrest in human MCF7 cells assessed as accumulation at S phase at 7.5 uM measured after 24 hrs by PI staining based flow cytometry (reference value: 24.64%; format: functional
[42] = system: MCF7; experiment: Cell cycle arrest in human MCF7 cells assessed as accumulation at G0/G1 phase at 7.5 uM measured after 24 hrs by PI staining based flow cytometry (reference value: 60.23%); format: functional
[43] = system: MCF7; experiment: Cell cycle arrest in human MCF7 cells assessed as accumulation at G2/M phase at 5 uM measured after 24 hrs by PI staining based flow cytometry (reference value: 15.13%); format: functional

## CC1=C[C@@H]2/C=C/C[C@H](C)CC/C=C\C(=O)[C@]23C(=O)N[C@@H](Cc2c[nH]c4ccccc24)[C@@H]3[C@@H]1C
[1]
  IC50: 8.2 µM
[2]
  IC50: 4.7 µM
[3]
  IC50: 8 µM
[4]
  IC50: 6.7 µM
[5]
  IC50: 6.2 µM
[6]
  IC50: 7.1 µM
[7]
  IC50: 9.1 µM
[8]
  IC50: 44.1 µM
[9]
  Activity: 13.15%
[10]
  Activity: 44.64%
[11]
  Activity: Active
[12]
  Activity: Active
[13]
  Activity: Active
[14]
  Activity: Active
[15]
  Activity: Active
[16]
  Activity: 22.56%
[17]
  Activity: 24.36%
[18]
  Activity: 3.07%
[19]
  Activity: 20.14%
[20]
  Activity: 15.57%
[21]
  Activity: 11.53%
[22]
  Activity: 7.12%
[23]
  Activity: 6.76%
[24]
  Activity: 4.68%
[25]
  Activity: 25.44%
[26]
  Activity: 19.53%
[27]
  Activity: 11.86%
[28]
  Activity: 71.12%
[29]
  Activity: 17.84%
[30]
  Activity: 11.04%
[31]
  Activity: 67.84%
[32]
  Activity: 19.02%
[33]
  Activity: 13.13%
[34]
  Activity: 62.86%
[35]
  Activity: 21.83%
[36]
  Activity: 15.31%
[37]
  Activity: 59.55%
[38]
  Activity: 12.37%
[39]
  Activity: 28.08%
[40]
  Activity: 48.75%
[41]
  Activity: 18.43%
[42]
  Activity: 32.82%
[43]
  Activity: 42.22%
